Columns and labels:
TDP-43 = molecular target: T1, TDP-43 (Homo sapiens, UniProt Q13148); test: Solid phase compound-protein complex pull-down with mass spectrometry protein identification; assay type: binding; conditions: precipitated proteins from PLC/PRF/5 and MDA-MB-231 cell lysates
T1 construct: added to whole cell lysate containing 5 mg protein; endogenous in cells; host or cells: MDA-MB-231 and PLC/PRF/5 whole cell lysates
Experimental: MDA-MB-231 and PLC/PRF/5 cells were maintained at 37° C. in a CO2 incubator in Dulbecco's Modified Eagle's Medium (DMEM) supplemented with 10% fetal bovine serum (FBS) and 1% of penicillin/streptomycin (Invitrogen).
The cells were lysed in lysis buffer containing 20 mM 4-(2-hydroxyethyl)-1-piperazineethanesulfonic acid (HEPES), pH 7.5, 0.3% 3-[(3-cholamidopropyl)dimethylammonio]-1-propanesulfonate (CHAPS), 150 mM NaCl, (Sigma-Aldrich), and protease inhibitor cocktail (Roche) with rotation at 4° C. for one hour followed by centrifugation at 15000 for 20 minutes. Ten milligrams of ALT-59 dissolved in DMSO at 20 mM were added to whole cell lysate containing 5 mg protein and incubated on ice for one hour. Compound precipitates out due to high hydrophobicity. Compound-protein complex were spun down at 1000 rpm and washed 5 times with lysis buffer to remove unbound protein. The compound-protein complex were boiled in SDS-PAGE protein sample buffer (1×) (80 mM Tris-HCl, pH 6.8, 2% SDS, 10% Glycerol, 0.1% Bromophenol blue.
For silver staining, proteins were separated on a 10% SDS-PAGE gel. To prepare samples for protein identification using mass spectrometry, protein samples were run into stacking gel and the electrophoresis was stopped after samples were compressed into single bands. […]

BACE1 = BACE1 expression, Western blot in T98G cells; assay type: cell-based; conditions: 2 days
Experimental: (§1) U-87 MG and T98G cells were maintained at 37° C. in a CO2 incubator in Dulbecco's Modified Eagle's Medium (DMEM) supplemented with 10% fetal bovine serum (FBS) and 1% of penicillin/streptomycin (Invitrogen). Cells were treated with DMSO, 3 μM, or 6 μM ALT-59 for 2 days and subjected to Western blotting analysis using the indicated antibodies. Protein bands were quantified using the ImageJ software.

MAP2 = MAP2 expression, Western blot in U-87 MG cells; assay type: cell-based; conditions: 2 days
Experimental: as §1

CFTR = CFTR localization, immunofluorescence microscopy, MDA-MB-231 cells; assay type: cell-based; conditions: 4 μM, 3 days
Experimental: MDA-MB-231 and U-87 MG cells were cultured on cover slips under the conditions as described above. Cells were treated with DMSO or 4 μM ALT-59 for 3 days. Primary human bronchial epithelial cells isolated from cystic fibrosis patient homozygous for Phe508del-CFTR (Lifeline Cell Technology) were cultured on cover slips in BronchiaLife Cell Culture Medium supplemented with BrochiaLife LifeFactors Kit (Lifeline Cell Technology) and maintained at 37° C. in a CO2 incubator. Cells were treated with DMSO, 4 μM ALT-59, 2 μM ALT-308, or 4 μM ALT-410 for 3 days.
Cells were fixed in 4% paraformaldehyde for 15 minutes and permeabilized in 0.1% Triton X-100 for 2 minutes. After being blocked in 5% BSA (Sigma-Aldrich), cells were incubated with anti-CFTR antibody (Alomone Labs) followed by Alexa Fluor 488 anti-rabbit secondary antibody. Reagents were buffered in GIBCO PBS (Phosphate-Buffered Saline). Images were taken using Carl Zeiss LSM 510 Laser Scanning Microscope. Parameters were set identical for all images.

Tau = Tau expression, Western blot in U-87 MG cells; assay type: cell-based; conditions: 2 days
Experimental: as §1

His-Sumo-TDP43 = molecular target: T2, His-Sumo-TDP43 (Homo sapiens, UniProt Q13148); test: Binding of His-Sumo-TDP43 to TG12-biotin, streptavidin bead pull-down and Western blot
T2 construct: made in house; host or cells: E. coli Rosetta (DE3), vector pSumo/TDP43, Ni-NTA purified
T2 sequence (Q13148 whole entry): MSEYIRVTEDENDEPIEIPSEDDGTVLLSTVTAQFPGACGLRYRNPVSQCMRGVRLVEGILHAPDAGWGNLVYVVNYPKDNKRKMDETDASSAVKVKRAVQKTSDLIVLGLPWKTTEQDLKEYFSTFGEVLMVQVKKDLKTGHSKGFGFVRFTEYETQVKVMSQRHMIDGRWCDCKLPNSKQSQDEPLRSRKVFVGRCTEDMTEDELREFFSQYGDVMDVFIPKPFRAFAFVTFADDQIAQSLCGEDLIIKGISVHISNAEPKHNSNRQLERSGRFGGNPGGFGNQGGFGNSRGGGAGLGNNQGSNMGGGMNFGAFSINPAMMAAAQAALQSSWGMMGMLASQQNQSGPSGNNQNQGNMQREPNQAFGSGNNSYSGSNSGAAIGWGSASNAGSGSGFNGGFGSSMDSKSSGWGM
Experimental: Additional experiments were performed to confirm the direct binding of ALT-59 to TDP-43. One microgram of purified His-Sumo-TDP43 was incubated with 1 μg TG12-biotin ([…]-biotin (SEQ ID NO: 1)) in binding buffer containing 20 mM HEPES, pH 7.5, 0.3% CHAPS, 150 mM NaCl, (Sigma-Aldrich), and protease inhibitor cocktail (Roche) for 4 hours on ice in the presence of carrier (50% Cremophor EL, 50% absolute ethanol) or 30 μM ALT-59 dissolved in carrier. Streptavidin magnetic beads (20 μl settled beads, GE Healthcare Life Sciences) were added to pull down the DNA-protein complex by rotating at 4° C. for 2 hours. After being washed 5 times with binding buffer, samples were boiled in protein sample buffer. In another experiment, DNA-protein complex bound to Streptavidin magnetic beads were washed and split into three parts, two of which were incubated with either carrier or ALT-59 for 4 hours with rotation at 4° C. to elute TDP-43 from TG12-biotin-streptavidin. The third part and elutes were mixed with protein sample buffer and boiled. Protein samples from the above experiments were loaded onto 4-20% Tris-glycine gel (Invitrogen) for fractionation. Western blotting was performed using anti-TDP-43 antibody (Proteintech Group).

T1 sequence (Q13148 whole entry): as above

CN(C)c1ccc(C2Nc3ccc4ccccc4c3C3=C2C(=O)CC(C)(C)C3)cc1Br (stereo not shown) [ALT-59, 5-(3-bromo-4-(dimethylamino)phenyl)-2,2-dimethyl-2,3,5,6-tetrahydrobenzo[a]phenanthridin-4(1H)-one]
ALT-59 binding proteins identified by mass spectrometry (TDP-43): TDP-43 (boxed) was ranked as the top hit
reduction of BACE1 expression (BACE1; 3 μM): 31%
reduction of BACE1 expression (BACE1; 6 μM): 53%
increase of MAP2 expression (MAP2; 3 μM): 1.42 folds
increase of MAP2 expression (MAP2; 6 μM): 2.51 folds
CFTR localization (CFTR): redistribution of CFTR from the perinuclear region to the plasma membrane
reduction of Tau expression (Tau; 3 μM): 52%
reduction of Tau expression (Tau; 6 μM): 38%
binding of TDP-43 to TG12 (His-Sumo-TDP43; 30 μM ALT-59 in carrier, 4 hours on ice): can block the binding of TDP-43 to TG12
elution of TDP-43 from the TDP43-TG12 complex (His-Sumo-TDP43; preformed DNA-protein complex on streptavidin beads, 4 hours at 4° C.): capable of displacing TG12 from the TDP43-TG12 complex

From patent US20230095021A1, “MODULATORS OF TDP-43” (Alteron Therapeutics, Inc., priority 2019, published 2023)
